US12622974B2, “Siderophore-dihydrofolate reductase inhibitor conjugate and application thereof” (priority 2020, dated 2026)
Values after ≈ are worked out from the molar mass of the structure shown. *1 amine or outer side, *2 acyl side, *3 side chain or, on linkers, in order; H or OH if unused. Where a SMILES comes first, the peptide text is derived from it. [ ]: non-standard residue; d: D form. The star is where a group is joined. DAMPA = CN(Cc1cnc2nc(N)nc(N)c2n1)c1ccc(C(=O)*)cc1; Orn(N5-OH,N5-Ac) = CC(=O)N(O)CCC[C@H](N)C(=O)O; d(γGlu) = O=C(O)[C@@H](CCC(=O)[*:2])N[*:1]; Ethylenediamine = C(CN[*:2])N[*:1]

Tests used:
[1] = tested on: clinical Streptococcus pneumoniae; assay: MIC determination on Streptococcus pneumoniae by the microdilution broth method; assay type: cell-based; settings: MH broth II with horse blood and 2,2-bipyridine, 16-18 hours; for MIC against Streptococcus pneumoniae 180918016-S27: clinical strain 180918016-S27; for MIC against Streptococcus pneumoniae 180918017-S28: clinical strain 180918017-S28
Procedure: The minimum inhibitory concentration (MIC) determination was performed in accordance with the standards of the American Association for Clinical and Laboratory Standards (CLSIM07). The MIC determination on Streptococcus pneumoniae was carried out by the microdilution broth method as follows. First, the compound to be tested was dissolved in water to prepare a high-concentration original solution, and then the compound original solution was sequentially diluted by 2 folds, a total of 10 times, to prepare 11 samples of 10× working solution. Then the gradient dilutions of the compound were transferred to a 96-well round bottom plate, the first to eleventh wells contained 10 μL of the 11 samples of 10× working solution prepared above, respectively, and 10 μL of water was added to the twelfth well as a solvent control.

[2] = Cytotoxicity test, MTT colorimetric method, L02; assay type: cell-based; settings: human
Procedure: (§1) The cytotoxicity test was carried out with the MTT colorimetric method. 5×10^3 cells in a logarithmic growth phase were inoculated in each well of a 96-well plate, and incubated overnight at 37° C. in an incubator (5% CO2). Then, different concentrations of compounds were added and the incubation further continued for 72 hours. Finally, 10 μL of MTT solution was added to each well and he incubation further continued for 4 hours. Then, the culture medium in each well was carefully aspirated. 100 μL of dimethyl sulfoxide was added to each well, and shaken at low speed for 10 minutes on a shaker to fully dissolve crystals. The absorbance of each well was measured at OD490 nm of the enzyme-linked immunometric meter. Three parallel measurements were designed for each group, in order to calculate the standard deviation. Cell survival rate=(compound-treated OD value−blank control OD value)/(normal control OD value−blank control OD value)*100%
(§2) The toxicity of each compound was tested by measuring the half inhibitory concentrations (IC50) with respect to human normal hepatocytes (L02), human umbilical vein endothelial cells (HUVEC) and human renal epithelial cells (293T), respectively.

[3] = Cytotoxicity test, MTT colorimetric method, HUVEC; assay type: cell-based; settings: human
Procedure: as §1, §2

[4] = Cytotoxicity test, MTT colorimetric method, 293T; assay type: cell-based; settings: human
Procedure: as §1, §2

[5] = tested on: human normal hepatocytes, human umbilical vein endothelial cells and human renal epithelial cells; assay: Cytotoxicity test, overall statement across the three normal human cell types; assay type: cell-based; settings: L02, HUVEC and 293T; compared with methotrexate
Procedure: as §1, §2

Enterococcus = settings: cited from earlier work
Streptococcus pneumoniae = settings: background statement; cited from earlier work

Row | SMILES | MIC against Streptococcus pneumoniae 180918016-S27 [1] | MIC against Streptococcus pneumoniae 180918017-S28 [1] | IC50 at 72 h [2] | IC50 at 72 h [3] | IC50 at 72 h [4] | Toxicity to normal human cells (in words) [5] | IC50 at 72 h ([2]; L02 cells (human normal hepatocytes), L02 cells, MTT, 72 hours, read-out: Cytotoxicity IC50 L02) | IC50 at 72 h ([3]; HUVEC (human umbilical vein endothelial cells), HUVEC cells, MTT, 72 hours, read-out: Cytotoxicity IC50 HUVEC) | IC50 at 72 h ([4]; 293T cells (human renal epithelial cells), 293T cells, MTT, 72 hours, read-out: Cytotoxicity IC50 293T) | MIC against Enterococcus (Enterococcus) | MIC against Streptococcus pneumoniae (Streptococcus pneumoniae)
1 | CC(=O)N(O)CCC[C@H](NC(=O)[C@H](CCCN(O)C(C)=O)NC(=O)[C@@H](N)CCCN(O)C(C)=O)C(=O)NCCCCCNC(=O)CC[C@@H](NC(=O)c1ccc(N(C)Cc2cnc3nc(N)nc(N)c3n2)cc1)C(=O)O [3-4b] | 0.0625 | <0.0078 | 34.6 ± 14.5 µM | 31 ± 3.18 µM | 8.82 ± 0.08 µM | least toxicity |  |  |  |  | 
2 | CC(=O)N(O)CCC[C@H](NC(=O)[C@H](CCCN(O)C(C)=O)NC(=O)[C@@H](N)CCCN(O)C(C)=O)C(=O)NCCOCCOCCNC(=O)CC[C@@H](NC(=O)c1ccc(N(C)Cc2cnc3nc(N)nc(N)c3n2)cc1)C(=O)O [3-4c] | <0.0078 | <0.0078 | 5.46 ± 2.18 µM | 4.52 ± 0.21 µM | 2.66 ± 0.01 µM |  |  |  |  |  | 
3 | CC(=O)N(O)CCC[C@H](NC(=O)[C@H](CCCN(O)C(C)=O)NC(=O)[C@@H](N)CCCN(O)C(C)=O)C(=O)N[C@@H](CO)C(=O)NCCNC(=O)CC[C@@H](NC(=O)c1ccc(N(C)Cc2cnc3nc(N)nc(N)c3n2)cc1)C(=O)O [3-4f] (H-[Orn(N5-OH,N5-Ac)][Orn(N5-OH,N5-Ac)][Orn(N5-OH,N5-Ac)]S-{Ethylenediamine-d(γGlu)-DAMPA}) | <0.0078 | <0.0078 | 14.7 ± 1.7 µM | 19.2 ± 0.54 µM | 3.93 ± 0.03 µM |  |  |  |  |  | 
4 | CC(=O)N(O)CCC[C@H](NC(=O)[C@H](CCCN(O)C(C)=O)NC(=O)[C@@H](N)CCCN(O)C(C)=O)C(=O)NCCNC(=O)[C@H](CO)NC(=O)[C@H](CO)NC(=O)CC[C@@H](NC(=O)c1ccc(N(C)Cc2cnc3nc(N)nc(N)c3n2)cc1)C(=O)O [3-4g] | <0.0078 | <0.0078 | 27 ± 2.88 µM | 18.4 ± 1.82 µM | 5.38 ± 0.65 µM | least toxicity |  |  |  |  | 
5 | CC(=O)N(O)CCC[C@H](NC(=O)[C@H](CCCN(O)C(C)=O)NC(=O)[C@@H](N)CCCN(O)C(C)=O)C(=O)NCCNC(=O)[C@H](CCCCN)NC(=O)CC[C@@H](NC(=O)c1ccc(N(C)Cc2cnc3nc(N)nc(N)c3n2)cc1)C(=O)O [3-4h] |  |  | 34.5 ± 4.01 µM | 16.6 ± 2 µM | 10.6 ± 1.34 µM | least toxicity |  |  |  |  | 
6 | CC(=O)N(O)CCCC[C@H](NC(=O)[C@H](CCCCN(O)C(C)=O)NC(=O)[C@@H](N)CCCCN(O)C(C)=O)C(=O)NCCOCCOCCNC(=O)CC[C@H](NC(=O)c1ccc(N(C)Cc2cnc3nc(N)nc(N)c3n2)cc1)C(=O)O [3-4v] | <0.0078 | <0.0078 |  |  |  |  |  |  |  |  | 
7 | CCC(=O)N(O)CCCC[C@H](NC(=O)[C@H](CCCCN(O)C(=O)CC)NC(=O)[C@@H](N)CCCCN(O)C(=O)CC)C(=O)NCCOCCOCCNC(=O)CC[C@H](NC(=O)c1ccc(N(C)Cc2cnc3nc(N)nc(N)c3n2)cc1)C(=O)O [3-4x] | <0.0078 | <0.0078 |  |  |  |  |  |  |  |  | 
8 | CN(Cc1cnc2nc(N)nc(N)c2n1)c1ccc(C(=O)N[C@@H](CCC(=O)O)C(=O)O)cc1 [Methotrexate, reference compound] | 0.125 | 0.03125 |  |  |  |  | 0.01 µM | < 0.0781 µM | 0.01 µM | 4 µM (≈ 1.82 µg/mL) | 0.5 µM (≈ 0.227 µg/mL)
9 | CN[C@H](CC(C)C)C(=O)N[C@H]1C(=O)N[C@@H](CC(N)=O)C(=O)N[C@H]2C(=O)N[C@H]3C(=O)N[C@H](C(=O)N[C@H](C(=O)O)c4cc(O)cc(O)c4-c4cc3ccc4O)[C@H](O)c3ccc(c(Cl)c3)Oc3cc2cc(c3O[C@@H]2O[C@H](CO)[C@@H](O)[C@H](O)[C@H]2O[C@H]2C[C@](C)(N)[C@H](O)[C@H](C)O2)Oc2ccc(cc2Cl)[C@H]1O [Vancomycin, reference compound] | 0.25 | 0.125 |  |  |  |  |  |  |  |  | 
